Experimental data as given in the supplement of paper PMC10307832.

Assays:
Test in all cases: relative viability (nuclei count vs DMSO), 5 days (fraction); higher = more cells survive
Sunitinib + Linsitinib = compound: CCN(CC)CCNC(=O)c1c(C)[nH]c(/C=C2\C(=O)Nc3ccc(F)cc32)c1C [Sunitinib] + C[C@]1(O)C[C@@H](c2nc(-c3ccc4ccc(-c5ccccc5)nc4c3)c3c(N)nccn32)C1 [Linsitinib] (partner 1 µM)
Procedure, shortened: (§1)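 Lung cancer cell lines, seeded in 1536-well plates, were treated the following day by pin tool with a single drug or with five library-drug doses (not always all listed) in √10 steps on top of a fixed anchor-drug dose. Cells were fixed and nuclei stained in one step after 5 days, and nuclei were counted. Relative viability is the nuclei count for treated wells divided by that for vehicle wells, reported as medians of duplicate plates.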

Sunitinib + OSI-027 = compound: CCN(CC)CCNC(=O)c1c(C)[nH]c(/C=C2\C(=O)Nc3ccc(F)cc32)c1C [Sunitinib] + COc1cccc2cc(-c3nc([C@H]4CC[C@H](C(=O)O)CC4)n4ncnc(N)c34)[nH]c12 [OSI-027] (partner 0.5 µM)
Procedure, shortened: as §1

Sunitinib + Crizotinib = compound: CCN(CC)CCNC(=O)c1c(C)[nH]c(/C=C2\C(=O)Nc3ccc(F)cc32)c1C [Sunitinib] + C[C@@H](Oc1cc(-c2cnn(C3CCNCC3)c2)cnc1N)c1c(Cl)ccc(F)c1Cl [Crizotinib] (partner 1 µM)
Procedure, shortened: as §1

Sunitinib + Tozasertib = compound: CCN(CC)CCNC(=O)c1c(C)[nH]c(/C=C2\C(=O)Nc3ccc(F)cc32)c1C [Sunitinib] + Cc1cc(Nc2cc(N3CCN(C)CC3)nc(Sc3ccc(NC(=O)C4CC4)cc3)n2)n[nH]1 [Tozasertib] (partner 0.1 µM)
Procedure, shortened: as §1

Row | Cell Line | relative viability (Sunitinib + Linsitinib; first compound 0.02 µM) | relative viability (Sunitinib + Linsitinib; first compound 0.06325 µM) | relative viability (Sunitinib + Linsitinib; first compound 0.2 µM) | relative viability (Sunitinib + Linsitinib; first compound 0.6325 µM) | relative viability (Sunitinib + Linsitinib; first compound 2 µM) | relative viability (Sunitinib + OSI-027; first compound 0.02 µM) | relative viability (Sunitinib + OSI-027; first compound 0.06325 µM) | relative viability (Sunitinib + OSI-027; first compound 0.2 µM) | relative viability (Sunitinib + OSI-027; first compound 0.6325 µM) | relative viability (Sunitinib + OSI-027; first compound 2 µM) | relative viability (Sunitinib + Crizotinib; first compound 0.02 µM) | relative viability (Sunitinib + Crizotinib; first compound 0.06325 µM) | relative viability (Sunitinib + Crizotinib; first compound 0.2 µM) | relative viability (Sunitinib + Crizotinib; first compound 0.6325 µM) | relative viability (Sunitinib + Crizotinib; first compound 2 µM) | relative viability (Sunitinib + Tozasertib; first compound 0.02 µM) | relative viability (Sunitinib + Tozasertib; first compound 0.06325 µM) | relative viability (Sunitinib + Tozasertib; first compound 0.2 µM) | relative viability (Sunitinib + Tozasertib; first compound 0.6325 µM) | relative viability (Sunitinib + Tozasertib; first compound 2 µM)
1 | NCI-H358 | 0.718 | 0.685 | 0.863 | 0.592 | 0.447 | 0.685 | 0.814 | 0.878 | 0.691 | 0.38 | 0.722 | 0.652 | 0.562 | 0.642 | 0.508 | 0.114 | 0.0928 | 0.123 | 0.103 | 0.109
2 | A-427 | 1.1 | 1.18 | 1.12 | 1.15 | 1.12 | 0.445 | 0.49 | 0.448 | 0.537 | 0.392 | 0.865 | 0.885 | 1.09 | 0.847 | 0.787 | 0.225 | 0.233 | 0.219 | 0.213 | 0.194
3 | NCI-H2085 | – | 0.923 | 0.939 | 0.945 | 1.02 | 0.761 | 0.768 | 0.73 | 0.96 | 1.06 | 0.844 | 0.817 | 1.03 | 0.85 | 0.798 | 0.863 | 0.835 | 1.02 | 0.747 | 0.605
4 | SK-MES-1 | 0.982 | 1.1 | 1.12 | 1.08 | 1.03 | 0.583 | 0.63 | 0.681 | 0.719 | 0.56 | 0.928 | 0.996 | 1.07 | 1.12 | 0.959 | 0.892 | – | 0.979 | 1 | –
5 | EKVX | 1.07 | 1.04 | 1.18 | 1.12 | 1.06 | 0.671 | 0.728 | 0.771 | 0.741 | 0.666 | 0.966 | 1.14 | 1.22 | – | 0.958 | 0.411 | 0.39 | 0.476 | 0.459 | 0.366
6 | NCI-H2009 | 1.2 | 1.18 | 1.2 | 1.31 | 1.27 | 0.578 | 0.772 | 0.704 | 0.771 | 0.666 | 1.01 | 1.03 | 1.16 | 1.13 | 1.04 | 0.695 | 0.747 | 0.858 | 0.78 | 0.716
7 | NCI-H1651 | 0.882 | 1.07 | 1.09 | 0.998 | 0.96 | 0.57 | – | 0.73 | 0.534 | 0.714 | 0.866 | 0.843 | 0.89 | 0.921 | 0.917 | 0.618 | 0.687 | 0.787 | 0.584 | 0.548
8 | LU99A | 0.455 | 0.574 | 0.602 | 0.652 | 0.474 | 0.289 | 0.297 | 0.287 | 0.329 | 0.317 | 0.517 | 0.524 | 0.605 | 0.764 | 0.674 | 0.296 | 0.285 | 0.267 | 0.273 | 0.273
